Experimental data: article PMC10921007 (Cancer Science, 2023)

Target: T1, SHCBP1 (Homo sapiens, UniProt Q8NEM2)
T1 sequence (Q8NEM2 2-672): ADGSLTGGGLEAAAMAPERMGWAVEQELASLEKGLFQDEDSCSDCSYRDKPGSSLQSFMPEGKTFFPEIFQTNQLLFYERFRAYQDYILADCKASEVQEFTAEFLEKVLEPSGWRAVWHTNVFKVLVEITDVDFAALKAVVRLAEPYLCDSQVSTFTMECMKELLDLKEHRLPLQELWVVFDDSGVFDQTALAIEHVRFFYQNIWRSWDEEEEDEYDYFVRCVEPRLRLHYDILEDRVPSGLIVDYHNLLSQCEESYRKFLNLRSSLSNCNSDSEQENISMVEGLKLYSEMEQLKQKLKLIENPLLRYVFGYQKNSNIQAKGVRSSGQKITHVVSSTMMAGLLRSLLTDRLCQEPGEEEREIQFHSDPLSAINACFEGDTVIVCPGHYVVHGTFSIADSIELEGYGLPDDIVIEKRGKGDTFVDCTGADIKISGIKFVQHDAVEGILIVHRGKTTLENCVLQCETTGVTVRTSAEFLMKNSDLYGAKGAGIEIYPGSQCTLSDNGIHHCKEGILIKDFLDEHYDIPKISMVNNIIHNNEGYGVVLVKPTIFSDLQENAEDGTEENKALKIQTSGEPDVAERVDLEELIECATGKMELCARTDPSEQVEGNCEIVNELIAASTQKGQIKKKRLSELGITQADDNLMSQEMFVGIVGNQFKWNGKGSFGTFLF
Experiment: microscale thermophoresis
Assay type: binding

Kd: 1210 nM
SMILES: CN[C@@H](C)C(=O)N[C@H](C(=O)N1CCC[C@H]1C(=O)N[C@H]1c2ccccc2C[C@H]1OCC#CC#CCO[C@@H]1Cc2ccccc2[C@@H]1NC(=O)[C@@H]1CCCN1C(=O)[C@@H](NC(=O)[C@H](C)NC)C1CCCCC1)C1CCCCC1 [AZD5582]
